Measured values: BindingDB's records for doi:10.1016/j.ejmech.2016.06.010 (Monash University, 2016)

What was measured:
[1] = biological target: Phosphatidylinositol 4,5-bisphosphate 3-kinase catalytic subunit beta isoform (Homo sapiens, UniProt P42338); experiment: Inhibition of PI3Kbeta in human washed platelets assessed as suppression of ADP-induced platelet aggregation preincubated for 5 mins followed by ADP stimulation after 10 mins by light transmission aggregometric analysis
[2] = Inhibition of PI3Kbeta in human platelet-rich plasma assessed as suppression of ADP-induced platelet aggregation preincubated for 5 mins followed by ADP stimulation after 10 mins by light transmission aggregometric analysis
[3] = Inhibition of PI3Kbeta in human washed platelets assessed as suppression of ADP-induced platelet aggregation preincubated for 5 mins followed by ADP stimulation after 10 mins by light transmission aggregometric analysis

Chain of Phosphatidylinositol 4,5-bisphosphate 3-kinase catalytic subunit beta isoform (P42338 whole entry, canonical isoform): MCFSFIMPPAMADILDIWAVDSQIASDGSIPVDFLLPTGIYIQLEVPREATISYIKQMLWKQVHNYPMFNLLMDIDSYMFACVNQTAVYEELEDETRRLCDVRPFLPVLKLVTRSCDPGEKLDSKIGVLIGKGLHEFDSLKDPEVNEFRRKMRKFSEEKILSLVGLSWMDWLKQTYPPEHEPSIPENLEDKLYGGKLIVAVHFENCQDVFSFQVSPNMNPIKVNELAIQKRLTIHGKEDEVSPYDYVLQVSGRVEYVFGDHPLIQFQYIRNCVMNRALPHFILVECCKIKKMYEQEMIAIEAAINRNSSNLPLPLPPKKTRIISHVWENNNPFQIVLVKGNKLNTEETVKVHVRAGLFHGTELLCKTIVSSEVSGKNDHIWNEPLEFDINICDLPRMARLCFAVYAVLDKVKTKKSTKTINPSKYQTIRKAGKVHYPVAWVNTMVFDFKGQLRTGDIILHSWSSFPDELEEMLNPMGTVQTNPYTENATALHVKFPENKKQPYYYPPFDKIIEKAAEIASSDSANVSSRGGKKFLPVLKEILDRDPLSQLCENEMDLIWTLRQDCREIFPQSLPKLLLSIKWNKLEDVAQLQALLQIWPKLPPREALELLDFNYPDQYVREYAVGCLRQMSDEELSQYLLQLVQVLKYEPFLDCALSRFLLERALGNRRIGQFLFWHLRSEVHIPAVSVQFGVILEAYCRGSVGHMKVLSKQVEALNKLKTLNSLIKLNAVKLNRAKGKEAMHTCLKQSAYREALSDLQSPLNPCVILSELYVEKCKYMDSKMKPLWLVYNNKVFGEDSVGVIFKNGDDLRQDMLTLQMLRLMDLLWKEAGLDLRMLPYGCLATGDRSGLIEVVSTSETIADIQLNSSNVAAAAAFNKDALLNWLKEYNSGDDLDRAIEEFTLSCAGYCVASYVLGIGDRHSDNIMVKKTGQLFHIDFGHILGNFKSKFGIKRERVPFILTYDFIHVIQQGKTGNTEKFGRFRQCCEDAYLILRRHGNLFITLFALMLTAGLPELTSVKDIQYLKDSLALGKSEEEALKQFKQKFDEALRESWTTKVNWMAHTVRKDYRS

| Compound | IC50 [1] | IC50 [2] | IC50 [3] |
| --- | --- | --- | --- |
| N[C@@H](Cc1ccccc1)C(=O)N1CCN(c2nc(N3CCOCC3)nc(-n3c(C(F)F)nc4ccccc43)n2)CC1 | 30 nM | 2800 nM | – |
| O=C([C@@H]1CCCN1)N1CCN(c2nc(N3CCOCC3)nc(-n3c(C(F)F)nc4ccccc43)n2)CC1 | – | – | 30 nM |
| O=C([C@H]1CCCN1)N1CCN(c2nc(N3CCOCC3)nc(-n3c(C(F)F)nc4ccccc43)n2)CC1 | – | – | 30 nM |
